Experimental data: patent US10231954B2, “Neurodegenerative therapies” (LYTIX BIOPHARMA AS, priority 2014, dated 2019)

Columns and labels:
Type in all cases: biochemical
Settings in all cases: 100 micromolar inhibitor concentration; 100 is no change
[1] = target: MKK1 (Homo sapiens, UniProt Q02750); assay: Kinase profiling MKK1
Source text: (§1) Any value less that 25 is considered to be highly significant inhibition.

[2] = target: p38a MAPK (Homo sapiens, UniProt Q16539); assay: Kinase profiling p38a MAPK
Source text: as §1

[3] = target: T1, PDK1 (Homo sapiens, UniProt O15530); assay: Kinase profiling PDK1
T1 sequence (O15530 1-556): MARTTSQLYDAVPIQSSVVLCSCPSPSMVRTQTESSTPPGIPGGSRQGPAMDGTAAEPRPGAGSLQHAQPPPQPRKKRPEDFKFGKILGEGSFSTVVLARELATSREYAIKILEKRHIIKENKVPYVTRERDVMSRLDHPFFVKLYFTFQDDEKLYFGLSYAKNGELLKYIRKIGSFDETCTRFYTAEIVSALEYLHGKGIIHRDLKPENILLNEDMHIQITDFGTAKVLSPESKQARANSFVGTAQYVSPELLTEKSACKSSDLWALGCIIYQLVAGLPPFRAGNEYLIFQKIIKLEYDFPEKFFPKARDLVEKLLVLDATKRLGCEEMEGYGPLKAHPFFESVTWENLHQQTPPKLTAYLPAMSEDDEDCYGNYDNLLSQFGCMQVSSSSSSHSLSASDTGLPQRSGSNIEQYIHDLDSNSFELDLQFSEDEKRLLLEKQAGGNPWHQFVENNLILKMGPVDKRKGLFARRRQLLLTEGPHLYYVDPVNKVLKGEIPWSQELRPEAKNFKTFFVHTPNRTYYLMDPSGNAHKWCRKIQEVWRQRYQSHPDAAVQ
Source text: as §1

[4] = target: PKBa (Homo sapiens, UniProt P31749); assay: Kinase profiling PKBa
Source text: as §1

[5] = target: PKA (Homo sapiens, UniProt P17612); assay: Kinase profiling PKA
Source text: as §1

[6] = target: PKCa (Homo sapiens, UniProt P17252); assay: Kinase profiling PKCa
Source text: as §1

[7] = target: MSK1 (Homo sapiens, UniProt O75582); assay: Kinase profiling MSK1
Source text: as §1

[8] = target: CAMKKb (Homo sapiens, UniProt Q96RR4); assay: Kinase profiling CAMKKb
Source text: as §1

[9] = target: CHK2 (Homo sapiens, UniProt O96017); assay: Kinase profiling CHK2
Source text: as §1

[10] = target: PLK1 (Homo sapiens, UniProt P53350); assay: Kinase profiling PLK1
Source text: as §1

[11] = target: MARK3 (Homo sapiens, UniProt P27448); assay: Kinase profiling MARK3
Source text: as §1

[12] = target: DYRK1A (Homo sapiens, UniProt Q13627); assay: DYRK 1A assay (kinase profiling)
Description: Assays are stopped by addition of 5 μl of 0.5 M (3%) orthophosphoric acid and then harvested onto P81 Unifilter plates with a wash buffer of 50 mM orthophosphoric acid.
as §1

[13] = target: T2, TBK1 (Homo sapiens, UniProt Q9UHD2); assay: Kinase profiling TBK1
T2 sequence (Q9UHD2 1-729): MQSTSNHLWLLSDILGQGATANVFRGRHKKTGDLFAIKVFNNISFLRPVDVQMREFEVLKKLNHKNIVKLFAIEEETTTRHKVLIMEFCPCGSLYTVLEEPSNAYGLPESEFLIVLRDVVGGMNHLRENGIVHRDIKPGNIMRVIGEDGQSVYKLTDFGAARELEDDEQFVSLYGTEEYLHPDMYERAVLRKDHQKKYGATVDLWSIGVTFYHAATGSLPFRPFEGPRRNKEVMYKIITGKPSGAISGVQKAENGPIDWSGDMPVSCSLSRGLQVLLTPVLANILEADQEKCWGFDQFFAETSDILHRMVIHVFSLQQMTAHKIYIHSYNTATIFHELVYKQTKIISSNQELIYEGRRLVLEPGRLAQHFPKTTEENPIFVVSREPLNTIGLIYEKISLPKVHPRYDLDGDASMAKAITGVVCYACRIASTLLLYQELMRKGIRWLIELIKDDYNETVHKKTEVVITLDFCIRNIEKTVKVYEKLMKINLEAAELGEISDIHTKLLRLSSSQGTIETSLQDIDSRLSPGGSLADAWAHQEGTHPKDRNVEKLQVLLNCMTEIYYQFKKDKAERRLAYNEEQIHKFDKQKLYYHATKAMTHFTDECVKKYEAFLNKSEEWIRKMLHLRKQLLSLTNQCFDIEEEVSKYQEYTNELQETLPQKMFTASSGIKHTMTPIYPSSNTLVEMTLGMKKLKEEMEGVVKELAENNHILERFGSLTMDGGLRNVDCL
Source text: as §1

[14] = target: PIM1 (Homo sapiens, UniProt P11309); assay: Kinase profiling PIM1
Source text: as §1

[15] = target: EF2K (Homo sapiens, UniProt O00418); assay: Kinase profiling EF2K
Source text: as §1

[16] = target: PAK4 (Homo sapiens, UniProt O96013); assay: Kinase profiling PAK4
Source text: as §1

[17] = target: RIPK2 (Homo sapiens, UniProt O43353); assay: Kinase profiling RIPK2
Source text: as §1

[18] = target: Lck (Homo sapiens, UniProt P06239); assay: Kinase profiling Lck
Source text: as §1

[19] = target: BTK (Homo sapiens, UniProt Q06187); assay: Kinase profiling BTK
Source text: as §1

[20] = target: JAK2 (Homo sapiens, UniProt O60674); assay: Kinase profiling JAK2
Source text: as §1

[21] = target: SYK (Homo sapiens, UniProt P43405); assay: Kinase profiling SYK
Source text: as §1

[22] = target: EPH-A2 (Homo sapiens, UniProt P29317); assay: Kinase profiling EPH-A2
Source text: as §1

Sequence of RIPK2 (O43353 whole entry, species assumed): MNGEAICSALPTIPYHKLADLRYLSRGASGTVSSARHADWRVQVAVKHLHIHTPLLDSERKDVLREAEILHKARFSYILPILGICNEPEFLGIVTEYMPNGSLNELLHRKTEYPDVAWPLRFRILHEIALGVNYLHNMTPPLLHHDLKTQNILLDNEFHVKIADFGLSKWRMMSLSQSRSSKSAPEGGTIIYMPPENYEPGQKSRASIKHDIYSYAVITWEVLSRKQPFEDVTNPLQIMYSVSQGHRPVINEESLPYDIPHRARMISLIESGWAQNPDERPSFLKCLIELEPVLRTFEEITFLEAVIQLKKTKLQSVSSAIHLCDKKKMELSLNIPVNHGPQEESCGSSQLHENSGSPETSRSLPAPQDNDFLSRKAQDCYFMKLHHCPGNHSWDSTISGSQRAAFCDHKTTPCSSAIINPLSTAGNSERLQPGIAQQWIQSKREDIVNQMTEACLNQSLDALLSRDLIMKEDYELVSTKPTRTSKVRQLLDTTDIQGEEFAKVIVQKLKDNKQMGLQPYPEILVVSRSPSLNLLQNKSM
Sequence of JAK2 (O60674 whole entry, species assumed): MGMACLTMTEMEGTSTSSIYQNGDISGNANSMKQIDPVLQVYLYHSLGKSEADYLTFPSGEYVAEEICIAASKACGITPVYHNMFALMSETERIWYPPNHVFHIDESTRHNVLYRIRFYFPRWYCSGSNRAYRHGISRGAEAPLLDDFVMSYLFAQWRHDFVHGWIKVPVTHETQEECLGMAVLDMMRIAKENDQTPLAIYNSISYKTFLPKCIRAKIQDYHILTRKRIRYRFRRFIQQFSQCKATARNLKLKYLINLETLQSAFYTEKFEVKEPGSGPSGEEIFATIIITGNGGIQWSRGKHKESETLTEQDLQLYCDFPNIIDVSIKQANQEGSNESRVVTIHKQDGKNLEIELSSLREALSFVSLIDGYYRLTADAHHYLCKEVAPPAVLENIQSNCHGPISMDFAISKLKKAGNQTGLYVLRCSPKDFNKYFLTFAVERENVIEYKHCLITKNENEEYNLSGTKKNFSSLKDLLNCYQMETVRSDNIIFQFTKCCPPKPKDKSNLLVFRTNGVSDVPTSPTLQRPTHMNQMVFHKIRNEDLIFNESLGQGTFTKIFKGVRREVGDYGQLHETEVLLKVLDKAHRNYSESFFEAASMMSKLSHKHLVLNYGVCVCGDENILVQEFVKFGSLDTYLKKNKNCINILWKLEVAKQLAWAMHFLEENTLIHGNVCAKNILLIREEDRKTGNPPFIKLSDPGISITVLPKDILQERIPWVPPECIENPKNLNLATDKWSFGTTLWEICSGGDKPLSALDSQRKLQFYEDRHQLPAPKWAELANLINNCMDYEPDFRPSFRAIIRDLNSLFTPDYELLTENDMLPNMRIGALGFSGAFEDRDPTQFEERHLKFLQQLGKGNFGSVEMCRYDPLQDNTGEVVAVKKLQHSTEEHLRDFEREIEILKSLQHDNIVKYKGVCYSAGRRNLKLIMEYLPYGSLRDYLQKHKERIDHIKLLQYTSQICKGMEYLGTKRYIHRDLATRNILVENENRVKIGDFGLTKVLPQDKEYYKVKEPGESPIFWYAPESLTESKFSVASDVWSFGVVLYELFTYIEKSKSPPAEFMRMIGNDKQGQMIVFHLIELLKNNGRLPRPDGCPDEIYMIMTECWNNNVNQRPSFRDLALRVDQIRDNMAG
Sequence of CHK2 (O96017 whole entry, species assumed): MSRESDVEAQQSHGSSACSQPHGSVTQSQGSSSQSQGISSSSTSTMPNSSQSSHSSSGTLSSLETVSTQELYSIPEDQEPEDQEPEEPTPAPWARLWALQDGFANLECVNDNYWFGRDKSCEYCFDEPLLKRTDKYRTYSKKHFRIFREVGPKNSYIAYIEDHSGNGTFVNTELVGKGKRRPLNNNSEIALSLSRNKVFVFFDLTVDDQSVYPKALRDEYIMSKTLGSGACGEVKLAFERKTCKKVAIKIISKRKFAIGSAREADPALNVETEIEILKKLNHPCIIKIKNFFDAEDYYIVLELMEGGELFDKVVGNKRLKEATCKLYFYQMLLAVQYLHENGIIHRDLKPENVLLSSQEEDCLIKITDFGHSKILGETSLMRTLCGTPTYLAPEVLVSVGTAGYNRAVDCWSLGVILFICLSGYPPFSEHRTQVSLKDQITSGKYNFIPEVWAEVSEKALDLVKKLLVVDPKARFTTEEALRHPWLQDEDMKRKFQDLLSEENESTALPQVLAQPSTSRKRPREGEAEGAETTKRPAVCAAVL
Sequence of Lck (P06239 whole entry, species assumed): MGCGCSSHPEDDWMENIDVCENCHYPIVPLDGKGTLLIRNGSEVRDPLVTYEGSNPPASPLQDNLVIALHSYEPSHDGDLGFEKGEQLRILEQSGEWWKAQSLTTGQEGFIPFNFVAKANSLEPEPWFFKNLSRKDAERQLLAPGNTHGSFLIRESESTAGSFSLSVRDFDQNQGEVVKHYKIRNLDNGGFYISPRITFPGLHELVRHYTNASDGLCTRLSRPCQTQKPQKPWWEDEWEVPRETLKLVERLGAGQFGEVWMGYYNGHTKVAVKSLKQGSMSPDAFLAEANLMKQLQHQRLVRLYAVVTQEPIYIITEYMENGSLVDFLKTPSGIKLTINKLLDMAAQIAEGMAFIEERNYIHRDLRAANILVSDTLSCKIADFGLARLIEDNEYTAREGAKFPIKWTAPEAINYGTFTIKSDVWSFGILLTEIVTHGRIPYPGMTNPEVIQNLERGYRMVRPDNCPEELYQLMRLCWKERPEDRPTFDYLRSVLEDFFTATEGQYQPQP
Sequence of PLK1 (P53350 whole entry, species assumed): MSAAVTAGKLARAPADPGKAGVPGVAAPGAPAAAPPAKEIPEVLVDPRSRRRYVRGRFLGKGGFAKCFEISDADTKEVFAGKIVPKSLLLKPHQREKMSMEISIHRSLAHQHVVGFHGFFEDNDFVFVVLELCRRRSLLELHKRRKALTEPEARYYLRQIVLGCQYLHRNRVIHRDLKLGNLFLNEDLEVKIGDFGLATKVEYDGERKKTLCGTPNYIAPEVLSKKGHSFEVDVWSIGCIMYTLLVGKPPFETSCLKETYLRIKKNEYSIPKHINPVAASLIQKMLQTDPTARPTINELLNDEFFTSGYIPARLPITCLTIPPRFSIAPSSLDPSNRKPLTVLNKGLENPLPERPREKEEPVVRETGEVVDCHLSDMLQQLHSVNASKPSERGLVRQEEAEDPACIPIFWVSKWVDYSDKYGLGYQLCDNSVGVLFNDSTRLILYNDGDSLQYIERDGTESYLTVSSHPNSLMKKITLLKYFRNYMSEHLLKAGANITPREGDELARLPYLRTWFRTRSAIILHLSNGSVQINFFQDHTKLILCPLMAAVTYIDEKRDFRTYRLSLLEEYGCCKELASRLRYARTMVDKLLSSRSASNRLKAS
Sequence of PAK4 (O96013 whole entry, species assumed): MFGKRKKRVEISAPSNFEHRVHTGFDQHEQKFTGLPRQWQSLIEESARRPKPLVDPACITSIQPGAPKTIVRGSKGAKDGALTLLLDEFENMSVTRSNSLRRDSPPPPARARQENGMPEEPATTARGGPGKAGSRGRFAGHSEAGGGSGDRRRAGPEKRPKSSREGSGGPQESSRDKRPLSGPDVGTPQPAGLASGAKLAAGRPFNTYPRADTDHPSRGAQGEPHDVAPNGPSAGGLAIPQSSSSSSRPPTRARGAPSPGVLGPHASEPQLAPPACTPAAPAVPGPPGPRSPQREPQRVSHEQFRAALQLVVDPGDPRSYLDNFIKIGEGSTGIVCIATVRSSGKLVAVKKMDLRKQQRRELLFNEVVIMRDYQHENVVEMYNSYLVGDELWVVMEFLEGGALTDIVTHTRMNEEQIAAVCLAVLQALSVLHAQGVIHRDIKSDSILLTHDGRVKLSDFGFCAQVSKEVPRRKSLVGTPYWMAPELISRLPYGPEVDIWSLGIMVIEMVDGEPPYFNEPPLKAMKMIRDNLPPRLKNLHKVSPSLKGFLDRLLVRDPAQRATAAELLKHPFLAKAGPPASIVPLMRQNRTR
Sequence of EPH-A2 (P29317 24-976, species assumed): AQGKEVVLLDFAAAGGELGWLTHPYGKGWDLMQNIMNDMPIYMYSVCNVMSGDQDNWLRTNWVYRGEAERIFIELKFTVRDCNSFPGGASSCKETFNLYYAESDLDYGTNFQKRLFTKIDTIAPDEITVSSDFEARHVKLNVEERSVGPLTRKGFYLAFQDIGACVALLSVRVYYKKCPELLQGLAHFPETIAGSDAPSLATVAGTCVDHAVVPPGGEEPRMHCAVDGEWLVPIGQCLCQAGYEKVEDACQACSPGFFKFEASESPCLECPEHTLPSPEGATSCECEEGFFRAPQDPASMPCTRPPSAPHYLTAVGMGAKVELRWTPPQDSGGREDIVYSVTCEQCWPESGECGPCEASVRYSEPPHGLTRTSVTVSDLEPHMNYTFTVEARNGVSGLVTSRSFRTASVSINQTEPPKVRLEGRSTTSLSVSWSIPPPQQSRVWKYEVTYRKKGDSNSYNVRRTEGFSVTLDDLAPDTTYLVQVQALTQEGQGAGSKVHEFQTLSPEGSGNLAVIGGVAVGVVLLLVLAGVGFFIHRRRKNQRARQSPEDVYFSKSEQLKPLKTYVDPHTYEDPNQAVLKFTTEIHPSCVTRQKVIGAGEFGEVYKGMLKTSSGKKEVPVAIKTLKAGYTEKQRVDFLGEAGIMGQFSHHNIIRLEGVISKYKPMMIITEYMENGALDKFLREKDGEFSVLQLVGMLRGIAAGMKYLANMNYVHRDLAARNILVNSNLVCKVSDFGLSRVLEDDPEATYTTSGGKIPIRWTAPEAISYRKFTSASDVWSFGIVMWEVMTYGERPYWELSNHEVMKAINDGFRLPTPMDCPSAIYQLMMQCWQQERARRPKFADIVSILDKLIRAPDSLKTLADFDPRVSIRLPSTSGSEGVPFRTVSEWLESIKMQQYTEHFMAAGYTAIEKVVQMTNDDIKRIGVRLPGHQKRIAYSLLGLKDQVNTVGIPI

O=C(Nc1nc2ccc(F)cc2s1)c1ccccc1 [Compound 03-92]
residual kinase activity, MKK1 [1]: 93
residual kinase activity, p38a MAPK [2]: 114
residual kinase activity, PDK1 [3]: 91
residual kinase activity, PKBa [4]: 99
residual kinase activity, PKA [5]: 96
residual kinase activity, PKCa [6]: 96
residual kinase activity, MSK1 [7]: 81
residual kinase activity, CAMKKb [8]: 80
residual kinase activity, CHK2 [9]: 80
residual kinase activity, PLK1 [10]: 92
residual kinase activity, MARK3 [11]: 109
residual kinase activity, DYRK1A [12]: 11
residual kinase activity, TBK1 [13]: 92
residual kinase activity, PIM1 [14]: 69
residual kinase activity, EF2K [15]: 134
residual kinase activity, PAK4 [16]: 111
residual kinase activity, RIPK2 [17]: 69
residual kinase activity, Lck [18]: 102
residual kinase activity, BTK [19]: 73
residual kinase activity, JAK2 [20]: 109
residual kinase activity, SYK [21]: 117
residual kinase activity, EPH-A2 [22]: 98

CC(=O)Nc1nc2ccc(F)cc2s1 [Compound 03-94]
residual kinase activity, MKK1 [1]: 76
residual kinase activity, p38a MAPK [2]: 84
residual kinase activity, PDK1 [3]: 87
residual kinase activity, PKBa [4]: 94
residual kinase activity, PKA [5]: 93
residual kinase activity, PKCa [6]: 98
residual kinase activity, MSK1 [7]: 88
residual kinase activity, CAMKKb [8]: 67
residual kinase activity, CHK2 [9]: 74
residual kinase activity, PLK1 [10]: 93
residual kinase activity, MARK3 [11]: 96
residual kinase activity, DYRK1A [12]: 12
residual kinase activity, TBK1 [13]: 91
residual kinase activity, PIM1 [14]: 40
residual kinase activity, EF2K [15]: 96
residual kinase activity, PAK4 [16]: 66
residual kinase activity, RIPK2 [17]: 38
residual kinase activity, Lck [18]: 92
residual kinase activity, BTK [19]: 107
residual kinase activity, JAK2 [20]: 49
residual kinase activity, SYK [21]: 96
residual kinase activity, EPH-A2 [22]: 94

COc1ccc2sc(NC(=O)c3ccccc3)nc2c1 [Compound 03-95]
residual kinase activity, MKK1 [1]: 92
residual kinase activity, p38a MAPK [2]: 82
residual kinase activity, PDK1 [3]: 89
residual kinase activity, PKBa [4]: 80
residual kinase activity, PKA [5]: 83
residual kinase activity, PKCa [6]: 53
residual kinase activity, MSK1 [7]: 67
residual kinase activity, CAMKKb [8]: 54
residual kinase activity, CHK2 [9]: 98
residual kinase activity, PLK1 [10]: 77
residual kinase activity, MARK3 [11]: 106
residual kinase activity, DYRK1A [12]: 30
residual kinase activity, TBK1 [13]: 100
residual kinase activity, PIM1 [14]: 19
residual kinase activity, EF2K [15]: 115
residual kinase activity, PAK4 [16]: 107
residual kinase activity, RIPK2 [17]: 40
residual kinase activity, Lck [18]: 93
residual kinase activity, BTK [19]: 75
residual kinase activity, JAK2 [20]: 86
residual kinase activity, SYK [21]: 83
residual kinase activity, EPH-A2 [22]: 91

COc1ccc2nc(NC(=O)c3ccccc3)sc2c1 [Compound 03-98]
residual kinase activity, MKK1 [1]: 105
residual kinase activity, p38a MAPK [2]: 86
residual kinase activity, PDK1 [3]: 101
residual kinase activity, PKBa [4]: 103
residual kinase activity, PKA [5]: 90
residual kinase activity, PKCa [6]: 89
residual kinase activity, MSK1 [7]: 90
residual kinase activity, CAMKKb [8]: 45
residual kinase activity, CHK2 [9]: 37
residual kinase activity, PLK1 [10]: 102
residual kinase activity, MARK3 [11]: 72
residual kinase activity, DYRK1A [12]: 6
residual kinase activity, TBK1 [13]: 95
residual kinase activity, PIM1 [14]: 76
residual kinase activity, EF2K [15]: 108
residual kinase activity, PAK4 [16]: 37
residual kinase activity, RIPK2 [17]: 34
residual kinase activity, Lck [18]: 93
residual kinase activity, BTK [19]: 56
residual kinase activity, JAK2 [20]: 81
residual kinase activity, SYK [21]: 109
residual kinase activity, EPH-A2 [22]: 95

O=C(Nc1nc2ccc(C(F)(F)F)cc2s1)c1ccccc1 [Compound 03-99]
residual kinase activity, MKK1 [1]: 87
residual kinase activity, p38a MAPK [2]: 86
residual kinase activity, PDK1 [3]: 84
residual kinase activity, PKBa [4]: 91
residual kinase activity, PKA [5]: 96
residual kinase activity, PKCa [6]: 114
residual kinase activity, MSK1 [7]: 70
residual kinase activity, CAMKKb [8]: 86
residual kinase activity, CHK2 [9]: 94
residual kinase activity, PLK1 [10]: 112
residual kinase activity, MARK3 [11]: 106
residual kinase activity, DYRK1A [12]: 9
residual kinase activity, TBK1 [13]: 96
residual kinase activity, PIM1 [14]: 78
residual kinase activity, EF2K [15]: 99
residual kinase activity, PAK4 [16]: 154
residual kinase activity, RIPK2 [17]: 89
residual kinase activity, Lck [18]: 92
residual kinase activity, BTK [19]: 79
residual kinase activity, JAK2 [20]: 87
residual kinase activity, SYK [21]: 120
residual kinase activity, EPH-A2 [22]: 110
